Paper PMC7557582, “Broad-Spectrum Antimicrobial Activity and Improved Stability of a D-Amino Acid Enantiomer of DMPC-10A, the Designed Derivative of Dermaseptin Truncates” (Antibiotics, 2020)
In brackets after ≈: the same amount, converted by molar mass. One block for each molecule: values may come before it. Non-standard residues stand in square brackets, D forms with d. Residues, ends and D or L forms follow the SMILES beside them. Cha = N[C@@H](CC1CCCCC1)C(=O)O

Tests used:
[1] = test system: S. aureus (NCTC 10788) biofilm; assay: Eradication of mature biofilm (crystal violet); type: cell-based, Staphylococcus aureus; settings: high concentrations ranging from 32 to 128 µM, 24 h treatment at 37 °C
Protocol: (§1) The antibiofilm activity of synthetic peptides was evaluated via the inhibitory effect against the formation of biofilm and the eradication of mature biofilm, which were performed as the previously study with minor modifications. […] Then, the solution in each well was discarded. The biofilm was washed with PBS. Finally, the biofilm in each well was stained by 100 μL of 0.1% crystal violet solution and further dissolved by 30% acetic acid. The absorbance of dissolved crystal violet in each well was recorded at 595 nm. For the eradication of mature biofilm, biofilm was formed with incubation at 37 °C for 24–48 h. Then, the plate was washed with PBS and filled with the peptides which were prepared in the fresh medium. After treatment for 24 h at 37 °C, the plate was stained as mentioned above. Both assays were repeated three times, with 5 replicates each time.

[2] = test system: K. pneumoniae (ATCC BAA 2342); type: cell-based, Klebsiella pneumoniae
Protocol: (§6) Gram-positive bacteria Staphylococcus aureus (NCTC 10788) and Enterococcus faecalis (NCTC 12697) and Gram-negative bacteria Escherichia coli (NCTC 10418), Pseudomonas aeruginosa (ATCC 27853), and Klebsiella pneumoniae (ATCC 43816) were tested. […] All the bacterial strains were inoculated in Mueller Hinton broth (MHB), pH 7.4 (Oxiod, Basingstoke, UK) at 37 °C. Then, the log-phase bacteria were mixed with the peptide at the concentrations from 512 to 1 µM in two-fold dilution, in a 96 well-plate. The wells contained sterilized MHB and bacteria cultures were employed as a blank and growth control, respectively.

E. coli (NCTC 10418) [3] = type: cell-based, Escherichia coli
Protocol: (§2) Furthermore, the antimicrobial activity in the presence of MgCl2, CaCl2, NaCl and 10% fetal bovine serum (FBS) was investigated. In detail, 2 and 5 mM of MgCl2 and CaCl2, and 150 and 375 mM NaCl, were applied, respectively. The supplements were added into the medium that was used for diluting the bacteria suspension. Then, the diluted bacteria culture was mixed with the peptide stock solution in the 96-well plate, as mentioned above. The assay was performed three times and each assay contained 5 replicates.

[4] = test system: K. pneumoniae (ATCC 43816) biofilm; assay: Inhibition of biofilm formation (crystal violet); type: cell-based, Klebsiella pneumoniae; settings: 37 °C 24–48 h, crystal violet 595 nm
Protocol: as §1

E. coli (NCTC 10418) [5] = type: cell-based, Escherichia coli; remark: listed apart in the source
Protocol: as §6

[6] = test system: K. pneumoniae (ATCC BAA 1705); assay: Checkerboard synergy assay; type: cell-based, Klebsiella pneumoniae
Protocol: (§3) The bacteria culture was prepared and diluted as performed in Section 4.4. Then, the bacteria dilution was mixed with a different combination of DMPC-10B and the antibiotics in the 96-well plate. The wells only contained individual peptides or antibiotics were applied as reference controls. Similarly, the turbidity of each well in the plate was measured at OD 550 nm, after incubation at 37 °C for 24 h. The fractional inhibitory concentration index (FICI) of each combination was defined as follows: FICI=MIC of DMPC-10B in combination/MIC of DMPC-10B alone+MIC of antibiotic in combination/MIC of antibiotic alone
(§4) The profile of the combination was interpreted as synergistic, additive, and antagonistic for FICI ≤ 0.5, 0.5 < FICI ≤ 4.0, and FICI > 4.0, respectively.

[7] = test system: K. pneumoniae (ATCC BAA 2342); assay: Checkerboard synergy assay; type: cell-based, Klebsiella pneumoniae
Protocol: as §3, §4

[8] = test system: MRSA (NCTC 12493) biofilm; assay: Inhibition of biofilm formation (crystal violet); type: cell-based, methicillin-resistant S. aureus; settings: 37 °C 24–48 h, crystal violet 595 nm
Protocol: as §1

[9] = test system: K. pneumoniae (ATCC 43816) biofilm; assay: Eradication of mature biofilm (crystal violet); type: cell-based, Klebsiella pneumoniae; settings: at 64 µM and 128 µM, compared with S. aureus and MRSA
Protocol: as §1

[10] = test system: Galleria mellonella larvae infected with K. pneumoniae (ATCC 43816); assay: Galleria mellonella larva infection model; type: in vivo; settings: 20 mg/kg injected 1 h after infection, 5 days, 10 larvae per group
Protocol: The assessment of in vivo antimicrobial activity of DMPC-10B was performed using the larva of Galleria mellonella, as in the previous study, with minor modifications. The infection model was constructed by injecting 10 μL of MRSA (NCTC 12493) and K. pneumoniae (ATCC 43816) bacteria suspension (5 × 10^7 CFU/mL) which was prepared in PBS. After 1 h, each infected larva was further administered an injection of 10 μL of peptide solution at different doses of 5, 10, 20 mg/kg. The infected larva that was administered 10 μL of PBS was employed as a negative control, while 20 mg/kg of gentamicin was used as a positive control. Each group contained 10 larvae and all larvae were inspected every 24 h for 5 days (the first day was 12 h).

[11] = test system: healthy Galleria mellonella larvae; assay: Toxicity to larvae without infection; type: in vivo; settings: highest dose (20 mg/kg), 5 days
[12] = test system: S. aureus (NCTC 10788) biofilm; assay: Inhibition of biofilm formation (crystal violet); type: cell-based, Staphylococcus aureus; settings: 37 °C 24–48 h, crystal violet 595 nm
Protocol: as §1

[13] = test system: MRSA (NCTC 12493) biofilm; assay: Eradication of mature biofilm (crystal violet); type: cell-based, methicillin-resistant S. aureus; settings: high concentrations ranging from 32 to 128 µM, 24 h treatment at 37 °C
Protocol: as §1

chymotrypsin = chymotrypsin (Bos taurus, UniProt P00766); assay: Enzyme stability assay, chymotrypsin; type: in vitro ADME; settings: peptide in PBS, peptide:chymotrypsin 100:1 (m/m)
Protocol: (§5) The peptides were dissolved in phosphate-buffered saline (PBS) and mixed with the respective enzyme (trypsin and chymotrypsin) with a ratio of 100:1 (m/m). Then, 135 µl of the reaction solution was transferred into a new vial. The hydrolysis reaction was immediately terminated by adding 15 µl of 10% TFA at the different time points (0, 5, 10, 20, 40, 60, 120 min). The mixture was then analyzed by reverse-phase HPLC and respective peak areas were calculated to obtain the residual amount of peptides at different times.

S. aureus (NCTC 10788) [14] = type: cell-based, Staphylococcus aureus
Protocol: as §6

S. aureus (NCTC 10788) [15] = type: cell-based, Staphylococcus aureus; remark: listed apart in the source
Protocol: as §2

trypsin = target: T1, trypsin (Bos taurus, UniProt P00760); assay: Enzyme stability assay, trypsin; type: in vitro ADME; settings: peptide in PBS, peptide:trypsin 100:1 (m/m), time points 0-120 min, stopped with 10% TFA, RP-HPLC peak area, three replicates
T1 construct: gene PRSS1
T1 sequence (P00760 24-246): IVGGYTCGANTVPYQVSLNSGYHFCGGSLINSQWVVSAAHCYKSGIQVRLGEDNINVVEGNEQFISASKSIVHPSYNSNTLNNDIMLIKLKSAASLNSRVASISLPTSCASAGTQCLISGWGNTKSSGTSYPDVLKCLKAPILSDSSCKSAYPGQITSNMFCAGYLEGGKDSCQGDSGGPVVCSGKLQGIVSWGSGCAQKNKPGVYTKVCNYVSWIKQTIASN
Protocol: as §5

[16] = test system: P. aeruginosa (ATCC 27853); type: cell-based, Pseudomonas aeruginosa
Protocol: as §6

MRSA (NCTC 12493) = type: cell-based, methicillin-resistant S. aureus
Protocol: as §6

[17] = test system: K. pneumoniae (ATCC BAA 1705); type: cell-based, Klebsiella pneumoniae
Protocol: as §6

E. faecalis (NCTC 12697) = type: cell-based, Enterococcus faecalis
Protocol: as §6

[18] = test system: K. pneumoniae (ATCC 43816); type: cell-based, Klebsiella pneumoniae
Protocol: as §6

Structure (SMILES): CC(C)C[C@@H](NC(=O)[C@H](C)N)C(=O)N[C@@H](Cc1c[nH]c2ccccc12)C(=O)N[C@H](CCCCN)C(=O)N[C@H](CCCCN)C(=O)N[C@H](CC(C)C)C(=O)N[C@H](CC(C)C)C(=O)N[C@H](CCCCN)C(=O)N[C@H](CCCCN)C(=O)N[C@@H](CC1CCCCC1)C(N)=O [DMPC-10B] (H-A[dL]W[dK][dK][dL][dL][dK][dK][Cha]-NH2; N-terminus assumed)
biofilm eradication effect [1]: around 50% | MBC ([2]; ATCC BAA 2342, pH 7.4): 16 µM (≈ 20.5 µg/mL) | MIC ([2]; ATCC BAA 2342, pH 7.4): 16 µM (≈ 20.5 µg/mL) | MIC with CaCl2 5 mM (E. coli (NCTC 10418) [3]): 32 µM | MIC with FBS 10% (E. coli (NCTC 10418) [3]): 4 µM | MIC with MgCl2 5 mM (E. coli (NCTC 10418) [3]): 32 µM | MIC with NaCl 150 mM (E. coli (NCTC 10418) [3]): 16 µM | MIC with NaCl 375 mM (E. coli (NCTC 10418) [3]): 32 µM | MIC, no additive (E. coli (NCTC 10418) [3]): 2 µM (≈ 2.56 µg/mL) | inhibition of biofilm formation [4]: less potent | MBC (E. coli (NCTC 10418) [5]; NCTC 10418, pH 7.4): 4 µM (≈ 5.12 µg/mL) | MIC (E. coli (NCTC 10418) [5]; NCTC 10418, pH 7.4): 2 µM (≈ 2.56 µg/mL) | combined MIC of DMPC-10B with norfloxacin ([6]; first value): 32/32 | individual MIC of DMPC-10B (norfloxacin checkerboard) ([6]; second value): 32/32 | combined MIC of DMPC-10B with norfloxacin ([7]; first value): 16/16 | individual MIC of DMPC-10B (norfloxacin checkerboard) ([7]; second value): 16/16 | inhibition of biofilm formation [8]: effectively inhibited | biofilm eradication effect [9]: more potent effects | survival of infected larvae [10]: around 70% | death of healthy larvae [11]: did not induce any death | inhibition of biofilm formation [12]: effectively inhibited | biofilm eradication effect [13]: around 50% | stability to hydrolysis by chymotrypsin (chymotrypsin; 120 min, RP-HPLC peak area, three replicates): exhibited resistance to the hydrolysis | time within which L-Trp site was not cleaved by chymotrypsin (chymotrypsin; RP-HPLC): > 2 h | MBC (S. aureus (NCTC 10788) [14]; NCTC 10788, pH 7.4): 16 µM (≈ 20.5 µg/mL) | MIC (S. aureus (NCTC 10788) [14]; NCTC 10788, pH 7.4): 4 µM (≈ 5.12 µg/mL) | MIC with CaCl2 5 mM (S. aureus (NCTC 10788) [15]): 64 µM | MIC with FBS 10% (S. aureus (NCTC 10788) [15]): 8 µM | MIC with MgCl2 5 mM (S. aureus (NCTC 10788) [15]): 64 µM | MIC with NaCl 150 mM (S. aureus (NCTC 10788) [15]): 64 µM | MIC with NaCl 375 mM (S. aureus (NCTC 10788) [15]): 128 µM | MIC, no additive (S. aureus (NCTC 10788) [15]): 4 µM (≈ 5.12 µg/mL) | time within which trypsin could not degrade the peptide completely (trypsin): > 2 h | MBC ([16]; ATCC 27853, pH 7.4): 32 µM (≈ 41 µg/mL) | MIC ([16]; ATCC 27853, pH 7.4): 4 µM (≈ 5.12 µg/mL) | MBC (MRSA (NCTC 12493); NCTC 12493, pH 7.4): 8 µM (≈ 10.2 µg/mL) | MIC (MRSA (NCTC 12493); NCTC 12493, pH 7.4): 4 µM (≈ 5.12 µg/mL) | MBC ([17]; ATCC BAA 1705, pH 7.4): 32 µM (≈ 41 µg/mL) | MIC ([17]; ATCC BAA 1705, pH 7.4): 32 µM (≈ 41 µg/mL) | MBC (E. faecalis (NCTC 12697); NCTC 12697, pH 7.4): 64 µM (≈ 81.9 µg/mL) | MIC (E. faecalis (NCTC 12697); NCTC 12697, pH 7.4): 64 µM (≈ 81.9 µg/mL) | MBC ([18]; ATCC 43816, pH 7.4): 8 µM (≈ 10.2 µg/mL) | MIC ([18]; ATCC 43816, pH 7.4): 8 µM (≈ 10.2 µg/mL)

MIC of antibiotic ([2]; K. pneumoniae (ATCC BAA 2342), broth-dilution, MHB pH 7.4, 37 °C, positive control): 4/8.38 µg/mL | MIC of antibiotic (E. coli (NCTC 10418) [5]; E. coli (NCTC 10418), broth-dilution, MHB pH 7.4, 37 °C, positive control): 1/2.09 µg/mL | MIC of antibiotic (S. aureus (NCTC 10788) [14]; S. aureus (NCTC 10788), broth-dilution, MHB pH 7.4, 37 °C, positive control): <0.0625/<0.13 µg/mL | MIC of antibiotic ([16]; P. aeruginosa (ATCC 27853), broth-dilution, MHB pH 7.4, 37 °C, positive control): 0.25/0.52 µg/mL | MIC of antibiotic (MRSA (NCTC 12493); MRSA (NCTC 12493), broth-dilution, MHB pH 7.4, 37 °C, positive control): 0.125/0.26 µg/mL | MIC of antibiotic ([17]; K. pneumoniae (ATCC BAA 1705), broth-dilution, MHB pH 7.4, 37 °C, positive control): 2/4.19 µg/mL | MIC of antibiotic (E. faecalis (NCTC 12697); E. faecalis (NCTC 12697), broth-dilution, MHB pH 7.4, 37 °C, positive control): 4/8.38 µg/mL | MIC of antibiotic ([18]; K. pneumoniae (ATCC 43816), broth-dilution, MHB pH 7.4, 37 °C, positive control): 1/2.09 µg/mL
Structure (SMILES): CNC(C)C1CCC(N)C(OC2C(N)CC(N)C(OC3OCC(C)(O)C(NC)C3O)C2O)O1 (stereo not drawn) [Gentamicin, reference compound]
